Source: ChEMBL document CHEMBL2062376, “Novel oxazolo[4,5-g]quinazolin-2(1H)-ones: dual inhibitors of EGFR and Src protein tyrosine kinases” (Eur J Med Chem, 2012)
pIC50: −log10 of the molar value. Values belong to the compound of their own block, whether it stands above or below them. Calls of active or inactive are those of the source. No cut-off for these calls is given here.

Assays:
[1] = target: T1, Epidermal growth factor receptor (Homo sapiens, UniProt P00533); test: Inhibition of EGFR at >100 uM
[2] = target: T1, Epidermal growth factor receptor
[3] = target: Proto-oncogene tyrosine-protein kinase Src (Homo sapiens, UniProt P12931); test: Inhibition of SRC
KB = test: Antiproliferative activity against human KB cells expressing EGFR and SRC by MTT assay; type: functional, cell-based
A498 = test: Antiproliferative activity against human A498 cells expressing EGFR and SRC by MTT assay; type: functional, cell-based

Sequence of Proto-oncogene tyrosine-protein kinase Src (P12931 2-536 limits assumed): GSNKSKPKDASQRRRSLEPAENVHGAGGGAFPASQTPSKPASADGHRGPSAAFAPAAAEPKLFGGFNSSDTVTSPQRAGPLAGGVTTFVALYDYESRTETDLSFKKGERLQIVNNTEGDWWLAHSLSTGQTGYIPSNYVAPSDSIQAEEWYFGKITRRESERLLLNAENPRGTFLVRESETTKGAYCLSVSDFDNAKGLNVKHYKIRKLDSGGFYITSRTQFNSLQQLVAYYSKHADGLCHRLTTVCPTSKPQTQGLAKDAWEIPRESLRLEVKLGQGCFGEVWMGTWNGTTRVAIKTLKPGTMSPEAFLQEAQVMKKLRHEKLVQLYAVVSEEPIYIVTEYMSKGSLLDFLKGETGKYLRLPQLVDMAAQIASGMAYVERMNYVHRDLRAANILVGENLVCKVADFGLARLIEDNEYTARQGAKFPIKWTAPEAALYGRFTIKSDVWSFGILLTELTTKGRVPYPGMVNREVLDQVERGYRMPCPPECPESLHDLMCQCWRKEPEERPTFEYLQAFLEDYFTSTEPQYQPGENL
T1 sequence (P00533 whole entry): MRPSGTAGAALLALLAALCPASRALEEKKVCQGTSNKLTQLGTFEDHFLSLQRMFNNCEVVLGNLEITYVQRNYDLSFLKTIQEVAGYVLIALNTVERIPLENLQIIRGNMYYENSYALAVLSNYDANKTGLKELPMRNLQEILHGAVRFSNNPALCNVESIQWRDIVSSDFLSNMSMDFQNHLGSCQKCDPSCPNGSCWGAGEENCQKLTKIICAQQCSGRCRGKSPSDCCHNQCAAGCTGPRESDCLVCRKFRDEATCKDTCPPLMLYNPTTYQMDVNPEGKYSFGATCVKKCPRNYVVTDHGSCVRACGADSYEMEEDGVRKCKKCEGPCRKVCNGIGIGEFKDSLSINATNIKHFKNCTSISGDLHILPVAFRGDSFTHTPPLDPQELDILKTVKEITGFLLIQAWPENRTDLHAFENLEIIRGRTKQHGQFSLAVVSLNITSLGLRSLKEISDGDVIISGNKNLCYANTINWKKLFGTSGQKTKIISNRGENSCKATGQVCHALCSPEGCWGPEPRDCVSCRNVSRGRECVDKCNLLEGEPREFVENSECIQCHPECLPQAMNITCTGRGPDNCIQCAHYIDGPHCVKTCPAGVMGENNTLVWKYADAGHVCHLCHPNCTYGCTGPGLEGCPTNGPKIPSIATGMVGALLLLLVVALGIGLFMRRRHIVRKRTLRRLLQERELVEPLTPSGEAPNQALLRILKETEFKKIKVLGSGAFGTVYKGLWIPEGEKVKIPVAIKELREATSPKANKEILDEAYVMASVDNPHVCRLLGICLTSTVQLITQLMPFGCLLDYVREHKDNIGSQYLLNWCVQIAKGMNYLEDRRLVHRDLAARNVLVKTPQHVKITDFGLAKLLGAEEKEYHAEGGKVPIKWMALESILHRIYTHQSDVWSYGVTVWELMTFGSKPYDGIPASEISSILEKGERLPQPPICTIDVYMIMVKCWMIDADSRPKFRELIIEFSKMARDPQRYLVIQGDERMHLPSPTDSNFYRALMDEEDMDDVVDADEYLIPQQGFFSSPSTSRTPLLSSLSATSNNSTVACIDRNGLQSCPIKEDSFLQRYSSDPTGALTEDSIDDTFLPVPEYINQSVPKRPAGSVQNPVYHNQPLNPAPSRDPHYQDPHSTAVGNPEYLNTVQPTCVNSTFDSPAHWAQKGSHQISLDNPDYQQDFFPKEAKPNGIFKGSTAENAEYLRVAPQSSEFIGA

SMILES: O=c1oc2cc3ncnc(N[C@H]4CC[C@H](O)CC4)c3cc2n1CCCN1CCOCC1
inhibition [1]: inactive

SMILES: Cc1ccc(Nc2ncnc3cc4oc(=O)n(CCCN5CCOCC5)c4cc23)cc1
pIC50 [2]: 7.17
pIC50 [3]: 5.12

SMILES: C[C@H](Nc1ncnc2cc3oc(=O)n(CCCN4CCOCC4)c3cc12)c1ccccc1
pIC50 [2]: 5.43

SMILES: O=c1oc2cc3ncnc(Nc4ccc5[nH]ncc5c4)c3cc2n1CCCN1CCOCC1
pIC50 [2]: 6.92
pIC50 (KB): 4.73
pIC50 (A498): 4.73

SMILES: CN1CCN(c2ncnc3cc4oc(=O)n(CCCN5CCOCC5)c4cc23)CC1
inhibition [1]: inactive

SMILES: NS(=O)(=O)c1ccc(Nc2ncnc3cc4oc(=O)n(CCCN5CCOCC5)c4cc23)cc1
inhibition [1]: inactive

SMILES: CCOC(=O)c1ccc(Nc2ncnc3cc4oc(=O)n(CCCN5CCOCC5)c4cc23)cc1
pIC50 [2]: 5.24
pIC50 [3]: 5.51
pIC50 (KB): 5.22
pIC50 (A498): 5.06

SMILES: CN(c1ccccc1)c1ncnc2cc3oc(=O)n(CCCN4CCOCC4)c3cc12
pIC50 [2]: 5.14

SMILES: Cc1ccccc1Nc1ncnc2cc3oc(=O)n(CCCN4CCOCC4)c3cc12
inhibition [1]: inactive

SMILES: Cc1c(OCC(F)(F)F)ccnc1COc1cccc(Nc2ncnc3cc4oc(=O)n(CCCN5CCOCC5)c4cc23)c1
pIC50 [2]: 7.00
pIC50 (KB): 4.80
pIC50 (A498): 4.45

SMILES: O=c1oc2cc3ncnc(Nc4ccc(OCc5ccccc5)cc4)c3cc2n1CCCN1CCOCC1
pIC50 [2]: 6.85
pIC50 (KB): 4.42
pIC50 (A498): 4.83

SMILES: O=c1oc2cc3ncnc(Nc4ccc(F)c(Cl)c4)c3cc2n1CCCN1CCOCC1
pIC50 [2]: 7.11
pIC50 (KB): 5.19
pIC50 (A498): 4.49

SMILES: Cc1c(OCC(F)(F)F)ccnc1COc1ccc(Nc2ncnc3cc4oc(=O)n(CCCN5CCOCC5)c4cc23)cc1
pIC50 [2]: 5.11

SMILES: O=c1oc2cc3ncnc(Nc4ccc(Cl)cc4)c3cc2n1CCCN1CCOCC1
inhibition [1]: inactive

SMILES: CN(C)S(=O)(=O)c1ccc2c(c1)/C(=C/c1cc3c([nH]1)CCCC3)C(=O)N2
pIC50 [3]: 7.14

SMILES: O=c1oc2cc3ncnc(Nc4ccccc4O)c3cc2n1CCCN1CCOCC1
pIC50 [2]: 4.52

SMILES: COc1ccc(Nc2ncnc3cc4oc(=O)n(CCCN5CCOCC5)c4cc23)cc1
pIC50 [2]: 6.42

SMILES: O=c1oc2cc3ncnc(Nc4ccc(F)c(F)c4)c3cc2n1CCCN1CCOCC1
pIC50 [2]: 6.24

SMILES: CC(=O)c1cccc(Nc2ncnc3cc4oc(=O)n(CCCN5CCOCC5)c4cc23)c1
pIC50 [2]: 5.17

The next lines start with results.

pIC50 [2]: 6.42
SMILES: C#Cc1cccc(Nc2ncnc3cc4oc(=O)n(CCCN5CCOCC5)c4cc23)c1

pIC50 [2]: 4.19
SMILES: O=c1oc2cc3ncnc(NCc4ccccc4)c3cc2n1CCCN1CCOCC1

pIC50 [2]: 4.10
SMILES: CC(C)(C)c1ccc(Nc2ncnc3cc4oc(=O)n(CCCN5CCOCC5)c4cc23)cc1

inhibition [1]: inactive
SMILES: CC(=O)Nc1ccc(Nc2ncnc3cc4oc(=O)n(CCCN5CCOCC5)c4cc23)cc1

pIC50 [2]: 5.35
SMILES: C[C@@H](Nc1ncnc2cc3oc(=O)n(CCCN4CCOCC4)c3cc12)c1ccccc1

pIC50 [2]: 5.52
SMILES: CC(C)Oc1cccc(Nc2ncnc3cc4oc(=O)n(CCCN5CCOCC5)c4cc23)c1

inhibition [1]: inactive
SMILES: COc1ccc(Nc2ncnc3cc4oc(=O)n(CCCN5CCOCC5)c4cc23)cc1OC

inhibition [1]: inactive
SMILES: O=C(OCc1ccc(Cl)cc1)c1ccc(Nc2ncnc3cc4oc(=O)n(CCCN5CCOCC5)c4cc23)cc1

pIC50 [2]: 5.77
SMILES: O=c1oc2cc3ncnc(Nc4ccc(OCc5ccccn5)cc4)c3cc2n1CCCN1CCOCC1

inhibition [1]: inactive
pIC50 [3]: 4.18
SMILES: O=c1oc2cc3ncnc(Nc4ccc(O)cc4)c3cc2n1CCCN1CCOCC1

pIC50 [2]: 6.00
pIC50 (KB): 4.43
SMILES: O=c1oc2cc3ncnc(Nc4ccc(OCc5ccc(Cl)cc5)cc4)c3cc2n1CCCN1CCOCC1
pIC50 (A498): 5.13

pIC50 [2]: 4.12
SMILES: Cc1cc(C)cc(Nc2ncnc3cc4oc(=O)n(CCCN5CCOCC5)c4cc23)c1

pIC50 [2]: 6.64
pIC50 (KB): 5.09
SMILES: CCOC(=O)c1ccc(O)c(Nc2ncnc3cc4oc(=O)n(CCCN5CCOCC5)c4cc23)c1
pIC50 (A498): 4.80

pIC50 [2]: 7.21
pIC50 (KB): 6.09
SMILES: O=c1oc2cc3ncnc(Nc4ccc(OCc5ccc(Cl)cc5)c(Cl)c4)c3cc2n1CCCN1CCOCC1
pIC50 (A498): 5.52
